“And” between values parts separate entries of the source, which are not always exact repeats. Equal values may be shown once.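 Tested at 5 concentrations; 48 h exposure; 96-well plates; endpoints linearly interpolated, else capped at highest concentration. The concentration for 50% growth inhibition is given as GI50.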 The source made the active and inactive calls. Cut-off read from the data, not from the text of the source: active = GI50 up to about 1.1 µM and inactive = higher. Where a SMILES comes first, the peptide text is derived from it. The star is where a group is joined. Boc = CC(C)(C)OC(=O)*
Tests used:
Assay in all cases: NCI-60 cell line screen, 48 h
A498 = test system: A498
A549 = test system: A549
CAKI-1 = test system: CAKI-1
CCRF-CEM = test system: CCRF-CEM
COLO 205 = test system: COLO 205
DU-145 = test system: DU-145
HCC 2998 = test system: HCC 2998
HCT-116 = test system: HCT-116
HT-29 = test system: HT-29
MCF7 = test system: MCF7
MDA-MB-435 = test system: MDA-MB-435
NCI/ADR-RES = test system: NCI/ADR-RES
OVCAR-5 = test system: OVCAR-5
PC-3 = test system: PC-3
SF-295 = test system: SF-295
SNB-19 = test system: SNB-19
SNB-75 = test system: SNB-75
SR = test system: SR
UACC-62 = test system: UACC-62
NCI-H226 = test system: NCI-H226

Structure (SMILES) | GI50 (A498) | GI50 (A549) | GI50 (CAKI-1) | GI50 (CCRF-CEM) | GI50 (COLO 205) | GI50 (DU-145) | GI50 (HCC 2998) | GI50 (HCT-116) | GI50 (HT-29) | GI50 (MCF7) | GI50 (MDA-MB-435) | GI50 (NCI/ADR-RES) | GI50 (OVCAR-5) | GI50 (PC-3) | GI50 (SF-295) | GI50 (SNB-19) | GI50 (SNB-75) | GI50 (SR) | GI50 (UACC-62) | GI50 (NCI-H226)
CC1NC(=O)C2Cc3ccc(O)c(c3)Oc3ccc(cc3)C(O)C(C(=O)N2C)N(C)C(=O)C(C)NC(=O)C(Cc2ccc(O)cc2)N(C)C(=O)C(C)NC1=O (stereo not drawn) | > 100 µM (inactive) | 41 µM (inactive) | > 100 µM (inactive) | 9.71 µM (inactive) | 79.6 µM (inactive) | 32.4 µM (inactive) | 22.2 µM (inactive) | 9.64 µM (inactive) | 19.2 µM (inactive) | 13.7 µM (inactive) | 18.8 µM (inactive) | > 100 µM (inactive) | 42.6 µM (inactive) | 23.8 µM (inactive) | > 100 µM (inactive) | 13.8 µM (inactive) | 3.67 µM (inactive) | 10.7 µM (inactive) | 19.5 µM (inactive) | –
CC(C)(C)OC(=O)Cn1ncn(NC(=O)Cc2ccccc2)c1=S | > 10 µM (inactive) | > 10 µM (inactive) | > 10 µM (inactive) | > 10 µM (inactive) | > 10 µM (inactive) | > 10 µM (inactive) | > 10 µM (inactive) | > 10 µM (inactive) | > 10 µM (inactive) | > 10 µM (inactive) | > 10 µM (inactive) | > 10 µM (inactive) | > 10 µM (inactive) | > 10 µM (inactive) | > 10 µM (inactive) | > 10 µM (inactive) | > 10 µM (inactive) | > 10 µM (inactive) | > 10 µM (inactive) | –
CC(=O)OC1COC(n2c(N)c(C#N)c(-c3ccccc3)c(C#N)c2=S)C(OC(C)=O)C1OC(C)=O (stereo not drawn) | 24.8 µM (inactive) and 33.2 µM (inactive) | 71 µM (inactive) and 85.9 µM (inactive) | 39.4 µM (inactive) and 40.7 µM (inactive) | 26.1 µM (inactive) and 35.2 µM (inactive) | 31.6 µM (inactive) and 31.3 µM (inactive) | 47.9 µM (inactive) and 38.4 µM (inactive) | 25.6 µM (inactive) and 27.4 µM (inactive) | 45.5 µM (inactive) and 37.8 µM (inactive) | 35.9 µM (inactive) and 43.1 µM (inactive) | 34.4 µM (inactive) and 29.9 µM (inactive) | 27.8 µM (inactive) and 24.3 µM (inactive) | > 100 µM (inactive) and 71.6 µM (inactive) | 46.5 µM (inactive) and 89.1 µM (inactive) | 43.9 µM (inactive) and 40.1 µM (inactive) | > 100 µM (inactive) | 75.9 µM (inactive) | 43.4 µM (inactive) and 24.4 µM (inactive) | 19.6 µM (inactive) and 22.2 µM (inactive) | 33 µM (inactive) and 35.1 µM (inactive) | –
COC1CC(OC2C(C)OC(OC3C(C)OC(OC4C(C)OC(O[C@H]5CC[C@@]6(C)C(=CC[C@]7(O)[C@@H]6C[C@@H](OC(=O)/C=C(\C)C(C)C)[C@@]6(C)[C@]7(O)CC[C@@]6(O)C(C)=O)C5)CC4OC)CC3OC)CC2OC)OC(C)C1O (stereo partly drawn) | – | > 12.5 µM (inactive) | > 12.5 µM (inactive) | > 12.5 µM (inactive) | > 12.5 µM (inactive) | > 12.5 µM (inactive) | > 12.5 µM (inactive) | > 12.5 µM (inactive) | > 12.5 µM (inactive) | > 12.5 µM (inactive) | > 12.5 µM (inactive) | > 12.5 µM (inactive) | > 12.5 µM (inactive) | > 12.5 µM (inactive) | > 12.5 µM (inactive) | > 12.5 µM (inactive) | > 12.5 µM (inactive) | > 12.5 µM (inactive) | > 12.5 µM (inactive) | > 12.5 µM (inactive)
COc1c(C)c(C/C=C(\C)CCCCO[Si](C(C)C)(C(C)C)C(C)C)c(OC)c2ccccc12 | – | > 100 µM (inactive) | > 100 µM (inactive) | 49 µM (inactive) | > 100 µM (inactive) | > 100 µM (inactive) | > 10 µM (inactive) | > 100 µM (inactive) | > 100 µM (inactive) | > 100 µM (inactive) | > 100 µM (inactive) | > 100 µM (inactive) | > 100 µM (inactive) | > 100 µM (inactive) | > 100 µM (inactive) | > 100 µM (inactive) | > 100 µM (inactive) | 70.1 µM (inactive) | > 100 µM (inactive) | –
CN(NC(=O)/C(=C/C=C/c1ccccc1)NC(=O)c1ccccc1)C1=C(Cl)C(=O)[N+](c2ccccc2)=CC1 | 39.4 µM (inactive) | 26.3 µM (inactive) | 35.4 µM (inactive) | – | 17.5 µM (inactive) | 33 µM (inactive) | – | 20.1 µM (inactive) | 29.2 µM (inactive) | 16.7 µM (inactive) | 17 µM (inactive) | 20.7 µM (inactive) | > 100 µM (inactive) | 35.7 µM (inactive) | 35 µM (inactive) | 25.4 µM (inactive) | 21.6 µM (inactive) | 21.4 µM (inactive) | – | 17.9 µM (inactive)
CSC1(CC(=O)N(C)C)C(=O)Nc2ccccc21 (stereo not drawn) | > 100 µM (inactive) | > 100 µM (inactive) | – | – | > 100 µM (inactive) | > 100 µM (inactive) | > 100 µM (inactive) | > 100 µM (inactive) | > 100 µM (inactive) | > 100 µM (inactive) | > 100 µM (inactive) | > 100 µM (inactive) | > 100 µM (inactive) | > 100 µM (inactive) | > 100 µM (inactive) | > 100 µM (inactive) | > 100 µM (inactive) | > 100 µM (inactive) | > 100 µM (inactive) | > 100 µM (inactive)
S=c1[nH]c2ccc(Br)cc2c(=S)s1 | – | 30.6 µM (inactive) | 21.8 µM (inactive) | 30.8 µM (inactive) | 16.4 µM (inactive) | 38.1 µM (inactive) | 26.1 µM (inactive) | 21.5 µM (inactive) | 24.4 µM (inactive) | 17.9 µM (inactive) | 23.2 µM (inactive) | 28.6 µM (inactive) | 19.2 µM (inactive) | 19.3 µM (inactive) | 27.4 µM (inactive) | 31.5 µM (inactive) | 28.1 µM (inactive) | 38.5 µM (inactive) | 18 µM (inactive) | 28.7 µM (inactive)
CC1=C(/C=C/C(C)=C/C=C/C(C)=C/C(=O)OCC2OC(n3cc(F)c(=O)[nH]c3=O)CC2OC(=O)/C=C(C)/C=C/C=C(C)/C=C/C2=C(C)CCCC2(C)C)C(C)(C)CCC1 (stereo not drawn) | – | 0.402 µM (active) | 0.959 µM (active) | 0.684 µM (active) | 18.7 µM (inactive) | 1.27 µM (inactive) | 0.132 µM (active) | 2.82 µM (inactive) | 11.2 µM (inactive) | 0.225 µM (active) | 13.3 µM (inactive) | 5.21 µM (inactive) | > 45.3 µM (inactive) | 8.95 µM (inactive) | 0.301 µM (active) | 3.1 µM (inactive) | 10.4 µM (inactive) | 0.794 µM (active) | 0.83 µM (active) | 37.8 µM (inactive)
O=CNC(Cc1c[nH]cn1)C(=O)O (stereo not drawn) | > 100 µM (inactive) | > 100 µM (inactive) | > 100 µM (inactive) | > 100 µM (inactive) | > 100 µM (inactive) | > 100 µM (inactive) | – | > 100 µM (inactive) | > 100 µM (inactive) | > 100 µM (inactive) | > 100 µM (inactive) | > 100 µM (inactive) | > 100 µM (inactive) | > 100 µM (inactive) | > 100 µM (inactive) | > 100 µM (inactive) | > 100 µM (inactive) | > 100 µM (inactive) | > 100 µM (inactive) | > 100 µM (inactive)
Cn1c(=O)c2[nH]c(C3CC(=O)CC(c4nc5c([nH]4)c(=O)n(C)c(=O)n5C)N3)nc2n(C)c1=O (stereo not drawn) | > 100 µM (inactive) | > 100 µM (inactive) | > 100 µM (inactive) | 38.3 µM (inactive) | 97.7 µM (inactive) | > 100 µM (inactive) | – | > 100 µM (inactive) | > 100 µM (inactive) | 71.3 µM (inactive) | > 100 µM (inactive) | > 100 µM (inactive) | > 100 µM (inactive) | > 100 µM (inactive) | > 100 µM (inactive) | > 100 µM (inactive) | > 100 µM (inactive) | 95.1 µM (inactive) | > 100 µM (inactive) | > 100 µM (inactive)
C/C(=N\Nc1nc2ccccc2s1)c1cccnn1 | – | 2.23 µM (inactive) | 1.04 µM (active) | 0.381 µM (active) | 2.48 µM (inactive) | 1.92 µM (inactive) | 13.2 µM (inactive) | 2.05 µM (inactive) | 3.24 µM (inactive) | 2.75 µM (inactive) | 4.26 µM (inactive) | 2.31 µM (inactive) | 4.02 µM (inactive) | 1.79 µM (inactive) | 2.31 µM (inactive) | 8.2 µM (inactive) | 5.5 µM (inactive) | 0.476 µM (active) | 2.7 µM (inactive) | 2.75 µM (inactive)
COC(=O)C(C)NC(=O)C(CCSC)NC(=O)C(Cc1ccccc1)NC(=O)OC(C)(C)C (stereo not drawn) (Boc-Phe-Met-Ala-OMe; configuration not given here) | – | > 100 µM (inactive) | > 100 µM (inactive) | > 100 µM (inactive) | > 100 µM (inactive) | > 100 µM (inactive) | > 100 µM (inactive) | > 100 µM (inactive) | > 100 µM (inactive) | > 100 µM (inactive) | > 100 µM (inactive) | > 100 µM (inactive) | > 100 µM (inactive) | > 100 µM (inactive) | > 100 µM (inactive) | > 100 µM (inactive) | > 100 µM (inactive) | > 100 µM (inactive) | > 100 µM (inactive) | > 100 µM (inactive)

— ChEMBL document CHEMBL1201862, “PubChem BioAssay data set” (2004)
